Data on 6 substances can be found in patent publication US11712483B2, “Activatable membrane-interacting peptides and methods of use” (priority 2013, dated 2023).

Entries after “also recorded” stand apart in the source; their conditions may differ. Where no end group is shown, it is not given here. Cy3 = cyanine3 fluorescent dye; Cy5 = cyanine5 fluorescent dye

Data set [1] relates to blood clots formed in vitro. Briefly: Blood clots formed on glass slides. Further details: species or system bovine. Conditions: for accumulation on actively clotting platelets / localization to blood clots: clots on glass slides, fluorescence microscopy; for accumulation on red blood cells: without activation. As for the experimental part: Whole bovine blood was mixed at a ratio of 5:1 with a 10 nM solution of promolecules bearing the fluorescent dye Cy5. The mixture was then added to 1 uL of activated coagulation factor Xa (10 nM) and calcium chloride (10 mM) to initiate clot formation on the surface of a conventional microscopy slide. The mixture was then stirred with the tip of a plastic pipette for four minutes until a clot was formed. The clot was then pulled gently across the slide with the goal of flattening out the clot for better imaging. A coverslip was then placed on top of the slide and held in place by dabbing the corners with adhesive. The slide was then imaged within a few hours using an epifluorescence microscope (Nikon Eclipse Ti-E) bearing the appropriate filters for detection of the Cy5 dye.

The target of a further data set is thrombin (Homo sapiens, UniProt P00734). Briefly: Thrombin-mediated proteolysis by reverse phase HPLC. The note with it: digestion by thrombin, Michaelis-Menten. It counts as biochemical. As for the experimental part: Thrombin-mediated proteolysis of promolecules was performed by incubating the enzyme at concentrations ranging from 0.1 to 2 nM with a 20 to 100 μM solution of the promolecule at 37° C. for up to three or a full twenty-four hours to ensure completeness. The extent of proteolysis was assessed by reverse phase high-pressure liquid chromatography. Samples were run over a C18 column using an acetonitrile gradient of 20% to 80% over a period of 30 minutes. Complete hydrolysis was evident by the absence of the initial peak corresponding to the promolecule, and was further validated using mass spectrometry.

Data set [2] can be described thus: Förster resonance energy transfer (FRET) to fluorescent liposomes. It is filed as binding. Conditions: 100 nm liposomes, entirely PS. As to the method: Förster resonance energy transfer (FRET) relies upon the ability of light to be exchanged from one fluorescent moiety to another, which becomes possible only when the moieties are in close proximity to one another, typically less than about 30 Angstroms. Liposomes having similar composition to that used in the intrinsic fluorescence assays were prepared with 1% DiO, a lipid-soluble fluorescent compound whose fluorescence emission characteristics match the excitation wavelength of the promolecule when conjugated to […]. DiO-containing liposomes (1 μM) were mixed with Cy5 containing promolecules or activated peptide portions (20 nM), and the spectral characteristics of the mixture were determined. Cy3 was excited with 545 nm light, and the emission of Cy5 was measured over 650 to 700 nm. The activated peptide portions, but not the promolecules, enabled fluorescence energy transfer, which confirmed the observations made using intrinsic fluorescence.

Data set [3] concerns mouse pancreatic duct carcinoma cells. Briefly: DRAQ7 exclusion, mouse pancreatic duct adenocarcinoma cells. It is filed as cell-based. The note with it: prolonged incubation, high micromolar concentrations, FIGS. 10 and 11. As to the method:
DRAQ7 is a far-red fluorescent DNA dye that stains the nuclei of dead and permeabilized cells. Unlike trypan blue, it can be combined with other commonly used fluorophores, such as Oregon Green 488 and Cy5. Healthy cells exclude the dye, and no increase in fluorescence is observed. […] When complexed with double stranded DNA, the dye has a maximum excitation wavelength of 643 nm and a maximum emission wavelength of 694 nm. Cells incubated with the promolecule or the activated peptide form of the promolecule in the presence or absence of thrombin (5 nM) were exposed to DRAQ7 (3 μM) for at least 10 minutes and then imaged using two different approaches. In the first approach, the cells were mouse pancreatic duct adenocarcinoma cells, the incubation buffer contained wheat germ agglutinin conjugated with Oregon Green 488, and the cells were visualized with a Nikon Eclipse Ti-E bearing the appropriate filters. In the second approach, mouse X3 fibroblast cells bearing a modified Histone 2A gene fused to green fluorescent protein (GFP) were imaged using an Acumen Ex3—a commercially available confocal microscopy instrument specifically designed for high throughput, content rich and highly multiplexed data applicable to a wide range of biological assays.

The next data set deals with T1, matriptase (Homo sapiens, UniProt Q9Y5Y6).
T1 sequence (Q9Y5Y6 615-855 limits assumed): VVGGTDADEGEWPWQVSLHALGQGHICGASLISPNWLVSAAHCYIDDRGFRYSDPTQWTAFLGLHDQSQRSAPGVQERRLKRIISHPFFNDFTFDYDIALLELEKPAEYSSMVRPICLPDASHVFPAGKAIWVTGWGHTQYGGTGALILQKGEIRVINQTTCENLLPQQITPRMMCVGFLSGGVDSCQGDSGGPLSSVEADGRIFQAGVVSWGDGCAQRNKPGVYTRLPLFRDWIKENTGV
Briefly: Selective activation in MDA-MB-231 cells, trypan blue, matriptase. The note with it: exogenous addition of different proteases. It counts as cell-based. As for the experimental part: (§1) To examine the interaction of the promolecule and its activated form with cell membranes rather than artificial membranes, the promolecules were incubated with cells of the breast cancer cell line MDA-MB-231 (approximately 100,000 cells in a volume of […]) for 1 hour at 37° C. in Dulbecco's modified Eagle medium containing 1% fetal bovine serum, and cell viability was assessed using Trypan blue dye exclusion.
(§2) Cy5 fluorescent dye was conjugated to this promolecule via an N-terminal thiol (module X^1a) to create a promolecule having the structure X^1a-A-X^2—Z, and its interaction with HT29 cells was analyzed using fluorescence microscopy. In this experiment, cells were grown to confluence on glass bottom microwell dishes and the peptide (10 uM) incubated with the cells for between one to three hours and then washed for staining with fluorescently-labeled wheat germ agglutinin. After such staining the cells were covered in typical cell culture media and allowed to grow overnight for another round of imaging.

The next data set relates to HT29 cells. Briefly: Fluorescence microscopy of HT29 cells. It is filed as cell-based. As to the method:
as §2

A short description of data set [4]: Intrinsic tryptophan fluorescence with liposomes or detergent micelles. It counts as binding. From the text:
Intrinsic fluorescence was used to characterize promolecules containing one or more tryptophan residues in portion A. As the spectral properties of tryptophan are dependent upon its local environment, this provides unequivocal definition of its partitioning into phospholipid membranes. In aqueous conditions, tryptophan typically emits light near 355 nm when excited with 285 nm light. In contrast, the emitted light is […] or lowered when the tryptophan of the peptide is present in an apolar environment, such as the interior of a phospholipid membrane, and produces a maximum emission wavelength typically in the range of 325 to 345 nm. Both the magnitude and wavelength of light emitted under this fluorescence assay are influenced by the properties of the peptide and the composition of the phospholipid membrane. […] A typical assay employed an 8 μM solution of promolecules and liposomes of defined size (100 nm in diameter, 0.5 mM) composed of phosphatidylserine or phosphatidylcholine or a combination thereof to test the influence of negatively charged or zwitterionic surfaces. […] Time-dependent measurement of the fluorescence emission spectra was used to characterize the activation of the promolecules by thrombin (2 nM) or by other proteases (10 nM or higher).

The subject of the next data set is MDA-MB-231 cells. Briefly: Trypan blue dye exclusion, MDA-MB-231 cells. It counts as cell-based. Conditions: 1 hour, 37° C. As to the method:
as §1

Data set [5] has as its system enteropeptidase or thrombin activity. Briefly: Fluorescence imaging in a subject, promolecule activated by either of two enzymes. Conditions: administered to a subject. It counts as in vivo. As for the experimental part:
In order to activate this promolecule, either X^2a or X^2b must be cleaved, so that this promolecule is activated by either thrombin or enteropeptidase activity. The molecule is administered to a subject, and is cleaved in areas having enteropeptidase or thrombin activity, causing portion A to separate from portion Z and interact with membranes in the vicinity.

The conditions of data set [6]: in vivo.
Procedure: In order to extend the circulating half-life of the promolecule, it is covalently linked to a molecule of polyethylene glycol (PEG) having a moleculer weight of 1,000 Daltons. The PEG-modified promolecule is administered to a subject and the circulating half-life is measured.

Turning to “Cy5-CFVQWFSKFLGKLLPRSFLLQDPNDQYEPFW [SEQ ID NO: 52]”, in data set [1], the “accumulation on actively clotting platelets / localization to blood clots” value is reported as “intense accumulation of the activated peptide form of the promolecule; also recorded: localization of the membrane-interacting peptide-containing cleavage product to blood clots” and the “accumulation on red blood cells” value is given as “did not accumulate on red blood cells”.

Usually Km stands for the substrate concentration at which the rate is half of its maximum. For “(Cy3-K)ILGTILGLLKGLPRSFLLRNPNDKYEPFW (Cy3-KILGTILGLLKGLPRSFLLRNPNDKYEPFW; also: Cy3 conjugated to N-terminal Lys, attachment site not given here) [SEQ ID NO: 48, thrombin-cleavable promolecule with protonectin as portion A, Cy3 on N-terminal lysine]”, the Km with thrombin amounted to 0.2 µM. Besides, in data set [1], the “accumulation on actively clotting platelets / localization to blood clots” value was “intense accumulation of the active form of the promolecule; also recorded: localization of membrane-interacting peptide-containing cleavage products in blood clots” and the “accumulation on red blood cells” value is on record as “did not accumulate on red blood cells”. Further, in data set [2], the “FRET to DiO liposomes composed of phosphatidylserine (PS)” value is recorded as “do not associate closely enough with the PS liposomes to enable FRET”.

Regarding “FVQWFSKFLGKLLPRSFLLQDPNDQYEPFW [SEQ ID NO: 47]”, the “peptide-to-cell ratio at which cells did not exclude trypan blue or DRAQ7 (no longer viable)” value in data set [3] was “greater than 10^9 to one”.

As for “(Cy5)FVQWFSKFLGKLLKSRAEDEGLYDDD (Cy5-FVQWFSKFLGKLLKSRAEDEGLYDDD; not fully specified; printed as (Cy5)FVQWFSKFLGKLLKSRAEDEGLYDDD) [SEQ ID NO: 49, matriptase-cleavable promolecule; tested as A-X^2—Z and with Cy5 via N-terminal thiol]”, the “activation by matriptase (diminished trypan blue dye exclusion)” value with matriptase is on record as “selectively activated by matriptase”. Besides, in the data set with HT29 cells (Cy5-conjugated promolecule, after co-incubation), the “fluorescent signal on cell surface” value is “accumulated on the surface of the HT29 cells; also recorded: detectable on the surface of cells”. Also, the internalization into cells entry in the data set with HT29 cells (after washing and further incubation (24 hours)) is listed as “internalized into the cells; also recorded: localized in punctate spheres inside the cells”. Moreover, the “maximum emission wavelength / spectral properties, intrinsic tryptophan fluorescence” value in data set [4] (in presence of PC or PS liposomes or detergent micelles compared to buffer alone (PBS)) is recorded as “undergo a limited change”. Further, in data set [4] (promolecule A-X^2—Z before activation), the “interaction with phospholipid membranes, intrinsic fluorescence” value was “moderate restricted interaction with phospholipid membranes”. For the same substance, the “toxicity / cell death, trypan blue dye uptake” value in the data set with MDA-MB-231 cells is reported as “Limited toxicity; also recorded: low toxicity; also recorded: did not”.

For “(Cy5)CFFWLSKIFPRDDDDKDD (Cy5-CFFWLSKIFPRDDDDKDD) [SEQ ID NO: 53]”, in [5], the “detection of Cy5 dye by fluorescence microscopy” value is “the Cy5 dye is detected in areas having enteropeptidase or thrombin activity”.

As to “PEG-modified promolecule: SEQ ID NO: 52 covalently linked to polyethylene glycol of 1,000 Daltons (CFVQWFSKFLGKLLPRSFLLQDPNDQYEPFW; not fully specified (residue 1, N-terminus); printed as Cy5-CFVQWFSKFLGKLLPRSFLLQDPNDQYEPFW; also: PEG 1000 Da attached, site not given here)”, in [6], the “circulating half-life versus non-PEG-modified form” value was “longer circulating half-life than the non-PEG-modified form”.
